One block for each compound: values may come before it. Active and inactive are the calls of the source. The calls are words filed in the database; no cut-off is given here.
Columns and labels:
[1] = test system: Panel NCI-60 (60 carcinoma cell lines); assay: Anticancer activity against human Panel NCI-60 (60 carcinoma cell lines) assessed as cell growth inhibition at 10 uM; type: functional, cell-based
[2] = test system: Panel NCI-60 (60 carcinoma cell lines); assay: Anticancer activity against human Panel NCI-60 (60 carcinoma cell lines) assessed as growth inhibition; type: functional
Homo sapiens [3] = species on record: Homo sapiens; assay: Selectivity ratio of IC50 for human HaCaT cells to IC50 for human UISO cells; conditions: tested as the 2H-labelled form
Homo sapiens [4] = species on record: Homo sapiens; assay: Selectivity ratio of IC50 for human HaCaT cells to IC50 for human MCC26 cells; conditions: tested as the 2H-labelled form
Homo sapiens [5] = species on record: Homo sapiens; assay: Selectivity ratio of IC50 for human HaCaT cells to IC50 for human MCC13 cells; conditions: tested as the 2H-labelled form
Homo sapiens [6] = species on record: Homo sapiens; assay: Selectivity ratio of IC50 for human HaCaT cells to IC50 for human MKL-1 cells; conditions: tested as the 2H-labelled form
Homo sapiens [7] = species on record: Homo sapiens; assay: Selectivity ratio of IC50 for human HaCaT cells to IC50 for human WaGa cells; conditions: tested as the 2H-labelled form
[8] = Anticancer activity against human MKL-1 cells assessed as inhibition of cell growth; type: functional, cell-based
[9] = Anticancer activity against human WaGa cells assessed as inhibition of cell growth; type: functional, cell-based
[10] = Anticancer activity against human UISO cells assessed as inhibition of cell growth; type: functional, cell-based
[11] = Anticancer activity against human MCC26 cells assessed as inhibition of cell growth; type: functional, cell-based
[12] = Anticancer activity against human MCC13 cells assessed as inhibition of cell growth; type: functional, cell-based
[13] = Cytotoxicity against human HaCaT cells assessed as inhibition of cell growth; type: toxicity, cell-based

SMILES: Cn1cnc(S[C@H]2[C@H]3C(=O)C=C4S[C@H]5C[C@]42C2=C(N5)C(=O)c4[nH]cc5c4C2=[N+]3CC5)c1C[C@H](N)C(=O)O
- Activity [1]: inactive

SMILES: Cc1[nH]c2c3c1CC[N+]1=C3C3=C(N[C@@H]4C[C@@]35C(=CC(=O)[C@@H]1[C@@H]5Sc1ncn(C)c1C[C@H](N)C(=O)O)S4)C2=O
- Activity ([1]; tested as the 2H-labelled form): inactive

SMILES: O=C1C2=C3C4=[N+](CCc5c[nH]c1c54)[C@@H]1C(=O)C=C4S[C@@H](C[C@@]43[C@H]1O)N2 [DISCORHABDIN L]
- GI50 [2]: 790 nM

SMILES: O=C1C(Br)=CC2(C=C1Br)CCNC1=C2C2=NCCc3c[nH]c(c32)C1=O [DISCORHABDIN C]
- GI50 [2]: 130 nM

- Ratio IC50 (Homo sapiens [3]): 3
- Ratio IC50 (Homo sapiens [4]): 3
- Ratio IC50 (Homo sapiens [5]): 3
- Ratio IC50 (Homo sapiens [6]): 13
- Ratio IC50 (Homo sapiens [7]): 13
SMILES: Cc1[nH]c2c3c1CC[N+]1=C3C3=C(N[C@@H]4C[C@@]35C(=CC(=O)[C@@H]1[C@@H]5O)S4)C2=O
- GI50 [2]: 5750 nM

SMILES: O=C([O-])C(F)(F)F.[2H]C([2H])([2H])c1[nH]c2c3c1CC[N+]1=C3C3=C(N[C@@H]4C[C@@]35C(=CC(=O)[C@@H]1[C@@H]5O)S4)C2=O
- GI50 [2]: 1650 nM
- IC50 [8]: 250 nM
- IC50 [9]: 720 nM
- IC50 [10]: 1410 nM
- IC50 [11]: 1990 nM
- IC50 [12]: 2500 nM
- IC50 [13]: 6200 nM

SMILES: O=C1C(Br)=CC2(C=C1Br)CCNC1=C2C2=NCCc3c(Br)[nH]c(c32)C1=O
- GI50 [2]: 420 nM

Source: ChEMBL document CHEMBL5376010, “Formation of Trideuteromethylated Artifacts of Pyrrole-Containing Natural Products” (J Nat Prod, 2024)
